Consider 31 compounds from patent publication US11998539B2, “Substituted aminoquinolones as DGKalpha inhibitors for immune activation” (Bayer Aktiengesellschaft, priority 2019, dated 2024).

Structures are written as SMILES.

The term IC50 denotes the concentration that gives 50% inhibition.

Sequence of DGKα (P23743 other isoform, or with tags, fused parts or gaps): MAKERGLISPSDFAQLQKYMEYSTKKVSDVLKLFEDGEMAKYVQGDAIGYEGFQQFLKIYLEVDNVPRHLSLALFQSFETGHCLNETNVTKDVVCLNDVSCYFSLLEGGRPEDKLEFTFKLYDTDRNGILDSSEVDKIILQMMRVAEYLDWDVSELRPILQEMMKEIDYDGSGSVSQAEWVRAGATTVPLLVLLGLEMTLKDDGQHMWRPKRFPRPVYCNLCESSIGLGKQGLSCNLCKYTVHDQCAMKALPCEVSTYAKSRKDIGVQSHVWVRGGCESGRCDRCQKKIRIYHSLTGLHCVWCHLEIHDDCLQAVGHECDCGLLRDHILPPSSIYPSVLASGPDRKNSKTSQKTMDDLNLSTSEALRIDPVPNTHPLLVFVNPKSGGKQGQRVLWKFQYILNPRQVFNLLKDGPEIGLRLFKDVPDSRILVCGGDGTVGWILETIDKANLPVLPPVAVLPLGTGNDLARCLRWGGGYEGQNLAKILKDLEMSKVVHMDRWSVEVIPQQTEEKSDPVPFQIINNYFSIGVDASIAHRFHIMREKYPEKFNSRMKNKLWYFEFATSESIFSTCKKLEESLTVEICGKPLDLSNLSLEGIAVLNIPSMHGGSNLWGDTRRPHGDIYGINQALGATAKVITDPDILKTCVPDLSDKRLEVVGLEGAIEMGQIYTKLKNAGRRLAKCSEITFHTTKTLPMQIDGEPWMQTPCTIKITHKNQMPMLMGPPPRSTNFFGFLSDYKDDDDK

In this test the target is DGKα (Homo sapiens (Human), UniProt P23743). In words: Human DGKα kinase activity inhibition assay (ADP-Glo). Type of test: biochemical. To be noted: recombinant full-length human DGKα, 55 μM ATP, 7 μM 1,2-dioleoyl-sn-glycerol, read-out: IC50 values of examples in in vitro human DGKa kinase activity inhibition assays. The method in brief:
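Activity was measured as ADP production, detected by luciferase luminescence after removal of unused ATP. The enzyme was baculovirus-expressed full-length human DGKα with a C-terminal FLAG tag. The substrate was 1,2-dioleoyl-sn-glycerol in detergent micelles, and compounds came from 100× DMSO solutions.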
Take `Cc1ccc2oc(C3(C)CCN(c4c(C(N)=O)c(=O)n(C)c5ccc(P(C)(C)=O)cc45)CC3)nc2c1` [Example 452, 6-(dimethylphosphoryl)-1-methyl-4-[4-methyl-4-(5-methyl-1,3-benzoxazol-2-yl)piperidin-1-yl]-2-oxo-1,2-dihydroquinoline-3-carboxamide]: the IC50 is 2570 nM.

In the case of `CC(C)c1ccc2oc(C3CCN(c4c(C#N)c(=O)n(C)c5ccc(Br)cc45)CC3)nc2c1` [Example 170, 6-bromo-1-methyl-2-oxo-4-{4-[5-(propan-2-yl)-1,3-benzoxazol-2-yl]piperidin-1-yl}-1,2-dihydroquinoline-3-carbonitrile], the concentration for half-maximal inhibition (IC50) amounted to 7.2 nM.

As to `Cc1ccc2oc(C3CCN(c4c(C#N)c(=O)n(C)c5cc(O)c(C)cc45)CC3)nc2c1` [Example 428, 7-hydroxy-1,6-dimethyl-4-[4-(5-methyl-1,3-benzoxazol-2-yl)piperidin-1-yl]-2-oxo-1,2-dihydroquinoline-3-carbonitrile], the IC50 stood at 0.6 nM.

For `Cc1ccc2oc(C3(C)CCN(c4c(C#N)c(=O)n(C)c5ccc(S(C)(=O)=O)cc45)CC3)nc2c1` [Example 182, 6-(methanesulfonyl)-1-methyl-4-[4-methyl-4-(5-methyl-1,3-benzoxazol-2-yl)piperidin-1-yl]-2-oxo-1,2-dihydroquinoline-3-carbonitrile], the IC50 is 47 nM.

For the compound `Cn1c(=O)c(C#N)c(N2CCC(c3nc4ccccc4o3)CC2)c2ccc(C(F)(F)F)cc21` [Example 291, 4-[4-(1,3-benzoxazol-2-yl)piperidin-1-yl]-1-methyl-2-oxo-7-(trifluoromethyl)-1,2-dihydroquinoline-3-carbonitrile], the IC50 stood at 11 nM.

On to `Cc1ccc2oc(C3CCN(c4c(C#N)c(=O)n(C)c5cc(OCC(=O)O)ccc45)CC3)nc2c1` [Example 416, ({3-cyano-1-methyl-4-[4-(5-methyl-1,3-benzoxazol-2-yl)piperidin-1-yl]-2-oxo-1,2-dihydroquinolin-7-yl}oxy)acetic acid], for which the 50% inhibitory concentration (IC50) worked out at 34 nM.

As to `Cc1ccc2oc(C3CCN(c4c(C#N)c(=O)n(C)c5ccc(S(C)(=O)=O)cc45)CC3)nc2c1` [Example 339, 6-(methanesulfonyl)-1-methyl-4-[4-(5-methyl-1,3-benzoxazol-2-yl)piperidin-1-yl]-2-oxo-1,2-dihydroquinoline-3-carbonitrile], the IC50 was 67 nM.

For `CCC1(c2nc3cc(C)ccc3o2)CCN(c2c(C#N)c(=O)n(C)c3cc(Br)ccc23)CC1` [Example 141, 7-bromo-4-[4-ethyl-4-(5-methyl-1,3-benzoxazol-2-yl)piperidin-1-yl]-1-methyl-2-oxo-1,2-dihydroquinoline-3-carbonitrile], the IC50 was found to be 5.6 nM.

Take `Cn1c(=O)c(C#N)c(N2CCC(c3nc4ccccc4o3)CC2)c2ccc(C#N)cc21` [Example 275, 4-[4-(1,3-benzoxazol-2-yl)piperidin-1-yl]-1-methyl-2-oxo-1,2-dihydroquinoline-3,7-dicarbonitrile]: the IC50 came to 172 nM.

As to `Cn1c(=O)c(C#N)c(N2CCC(c3cc[nH]n3)CC2)c2ccccc21` [Example 322, 1-methyl-2-oxo-4-[4-(1H-pyrazol-3-yl)piperidin-1-yl]-1,2-dihydroquinoline-3-carbonitrile], the 50% inhibitory concentration (IC50) came to 239 nM.

Consider `Cn1c(=O)c(C#N)c(N2CCC(O)(c3cccc(C(F)(F)F)c3)CC2)c2ccccc21` [Example 152, 4-{4-hydroxy-4-[3-(trifluoromethyl)phenyl]piperidin-1-yl}-1-methyl-2-oxo-1,2-dihydroquinoline-3-carbonitrile], for which the IC50 came to 1070 nM.

As to `COC1(c2cccc(Cl)c2)CCN(c2c(C#N)c(=O)n(C)c3ccccc23)CC1` [Example 336, 4-[4-(3-chlorophenyl)-4-methoxypiperidin-1-yl]-1-methyl-2-oxo-1,2-dihydroquinoline-3-carbonitrile], the 50% inhibitory concentration (IC50) is 80 nM.

For `CCn1c(=O)c(C#N)c(N2CCC(c3nc4ccccc4o3)CC2)c2ccccc21` [Example 332, 4-[4-(1,3-benzoxazol-2-yl)piperidin-1-yl]-1-ethyl-2-oxo-1,2-dihydroquinoline-3-carbonitrile], the IC50 is 17 nM.

Regarding `CC(C)c1ccc2oc(C3(C)CCN(c4c(C#N)c(=O)n(C)c5ccccc45)CC3)nc2c1` [Example 21, 1-methyl-4-{4-methyl-4-[5-(propan-2-yl)-1,3-benzoxazol-2-yl]piperidin-1-yl}-2-oxo-1,2-dihydroquinoline-3-carbonitrile], the IC50 amounted to 5.2 nM.

For the compound `Cc1ccccc1-c1nnc(C2CCN(c3c(C#N)c(=O)n(C)c4cc(O)ccc34)CC2)o1` [Example 444, 7-hydroxy-1-methyl-4-{4-[5-(2-methylphenyl)-1,3,4-oxadiazol-2-yl]piperidin-1-yl}-2-oxo-1,2-dihydroquinoline-3-carbonitrile], the IC50 worked out at 82 nM.

`Cc1ccc2oc(C3CCN(c4c(C(N)=O)c(=O)n(C)c5ccc(S(C)(=O)=O)cc45)CC3)nc2c1` [Example 454, 6-(methanesulfonyl)-1-methyl-4-[4-(5-methyl-1,3-benzoxazol-2-yl)piperidin-1-yl]-2-oxo-1,2-dihydroquinoline-3-carboxamide]: the half-maximal inhibitory concentration (IC50) stood at 373 nM.

For `Cn1c(=O)c(C#N)c(N2CCC(c3nc4ccccc4s3)CC2)c2cc(C#N)ccc21` [Example 176, 4-[4-(1,3-benzothiazol-2-yl)piperidin-1-yl]-1-methyl-2-oxo-1,2-dihydroquinoline-3,6-dicarbonitrile], the IC50 was 3 nM.

On to `Cc1ccc2c(N3CCC(c4nc5ccccc5o4)CC3)c(C#N)c(=O)n(C)c2c1` [Example 219, 4-[4-(1,3-benzoxazol-2-yl)piperidin-1-yl]-1,7-dimethyl-2-oxo-1,2-dihydroquinoline-3-carbonitrile], for which the IC50 came to 1.6 nM.

Consider `COc1ccc2c(c1)c(N1CCC(c3nc4cc(C)ccc4o3)CC1)c(C#N)c(=O)n2C` [Example 402, 6-methoxy-1-methyl-4-[4-(5-methyl-1,3-benzoxazol-2-yl)piperidin-1-yl]-2-oxo-1,2-dihydroquinoline-3-carbonitrile], for which the 50% inhibitory concentration (IC50) was 16 nM.

For the compound `Cn1nccc1C1CCN(c2c(C#N)c(=O)n(C)c3ccccc23)CC1` [Example 149, 1-methyl-4-[4-(1-methyl-1H-pyrazol-5-yl)piperidin-1-yl]-2-oxo-1,2-dihydroquinoline-3-carbonitrile], the IC50 turned out to be 1100 nM.

For the compound `Cc1ccc2oc(C3CCN(c4c(C(N)=O)c(=O)n(C)c5cc(N(C)C6COC6)ccc45)CC3)nc2c1` [Example 494, 1-methyl-4-[4-(5-methyl-1,3-benzoxazol-2-yl)piperidin-1-yl]-7-[methyl(oxetan-3-yl)amino]-2-oxo-1,2-dihydroquinoline-3-carboxamide], the IC50 was 6.2 nM.

On to `COc1ccc2c(c1)c(N1CCC(c3nc(-c4ccccc4C)no3)CC1)c(C#N)c(=O)n2C` [Example 438, 6-methoxy-1-methyl-4-{4-[3-(2-methylphenyl)-1,2,4-oxadiazol-5-yl]piperidin-1-yl}-2-oxo-1,2-dihydroquinoline-3-carbonitrile], for which the IC50 turned out to be 31 nM.

Turning to `Cn1c(=O)c(C#N)c(N2CCC(O)(c3cc4ccccc4s3)CC2)c2ccccc21` [Example 340, 4-[4-(1-benzothiophen-2-yl)-4-hydroxypiperidin-1-yl]-1-methyl-2-oxo-1,2-dihydroquinoline-3-carbonitrile], the IC50 came out at 72 nM.

`Cn1c(=O)c(C(N)=O)c(N2CCC(c3nnc(-c4ccccc4)o3)CC2)c2cc(Br)ccc21` [Example 524, 6-bromo-1-methyl-2-oxo-4-[4-(5-phenyl-1,3,4-oxadiazol-2-yl)piperidin-1-yl]-1,2-dihydroquinoline-3-carboxamide]: the IC50 was found to be 45 nM.

As for `Cc1ccc2oc(C3CCN(c4c(C(N)=O)c(=O)n(C)c5cc(OC6CCOCC6)ccc45)CC3)nc2c1` [Example 479, 1-methyl-4-[4-(5-methyl-1,3-benzoxazol-2-yl)piperidin-1-yl]-7-[(oxan-4-yl)oxy]-2-oxo-1,2-dihydroquinoline-3-carboxamide], the IC50 amounted to 59 nM.

As to `COc1ccc2cc(C3CCN(c4c(C#N)c(=O)n(C)c5ccccc45)CC3)ccc2c1` [Example 343, 4-[4-(6-methoxynaphthalen-2-yl)piperidin-1-yl]-1-methyl-2-oxo-1,2-dihydroquinoline-3-carbonitrile], the IC50 worked out at 16 nM.

Turning to `Cc1ccc2oc(C3CCN(c4c(C#N)c(=O)n(C)c5cc(OC6CCCOC6)ccc45)CC3)nc2c1` (stereo not shown) [Example 414, 1-methyl-4-[4-(5-methyl-1,3-benzoxazol-2-yl)piperidin-1-yl]-7-{[oxan-3-yl]oxy}-2-oxo-1,2-dihydroquinoline-3-carbonitrile], the IC50 worked out at 1.3 nM.

Consider `Cn1c(=O)c(C#N)c(N2CCC(c3ccc(OCc4ccccc4)cc3)CC2)c2ccccc21` [Example 48, 4-{4-[4-(benzyloxy)phenyl]piperidin-1-yl}-1-methyl-2-oxo-1,2-dihydroquinoline-3-carbonitrile], for which the IC50 was determined as 3 nM.

As to `Cc1cc2c(N3CCC(c4cnn(-c5ccccc5C)c4)CC3)c(C#N)c(=O)n(C)c2cc1Br` [Example 579, 7-bromo-1,6-dimethyl-4-{4-[1-(2-methylphenyl)-1H-pyrazol-4-yl]piperidin-1-yl}-2-oxo-1,2-dihydroquinoline-3-carbonitrile], the IC50 came to 61 nM.

Regarding `CCOc1ccc2c(c1)c(N1CCC(c3nc4cc(C)ccc4o3)CC1)c(C(N)=O)c(=O)n2C` [Example 502, 6-ethoxy-1-methyl-4-[4-(5-methyl-1,3-benzoxazol-2-yl)piperidin-1-yl]-2-oxo-1,2-dihydroquinoline-3-carboxamide], the IC50 is 120 nM.

Take `CCC1(c2nc3cc(C)ccc3o2)CCN(c2c(C#N)c(=O)n(C)c3ccccc23)CC1` [Example 140, 4-[4-ethyl-4-(5-methyl-1,3-benzoxazol-2-yl)piperidin-1-yl]-1-methyl-2-oxo-1,2-dihydroquinoline-3-carbonitrile]: the IC50 stood at 1.6 nM.
